Converted amounts (≈) assume the structure as drawn. Where two headings read alike, the source gives them in different places.
What was measured:
[1] = system: clinical isolates of P. aeruginosa; test: MIC against panel of clinical isolates of P. aeruginosa; type: cell-based, Pseudomonas aeruginosa; details: for MIC: Pseudomonas aeruginosa, read-out: MIC
Description: (§1) Antimicrobial Susceptibility Tests. Susceptibility testing was performed in biological triplicate, using the microdilution broth method as outlined by the Clinical and Laboratory Standards Institute. Bacteria were cultured with cation-adjusted Meuller-Hinton broth (Sigma-Aldrich; catalogue number: 90922) or Luria-Bertani (LB) broth (Lennox) in round-bottom 96-well plates (Corning; catalogue number: 3788).

[2] = system: FA resistance mutants of P. aeruginosa PAO1 A6; test: MIC in FA-resistant mutants; type: cell-based, Pseudomonas aeruginosa; details: mutants generated in PAO1 A6
Description: as §1
Selection ofresistant mutants. Resistant mutants were selected using the large inoculum method. […] Colonies were visible after incubating at 37° C. for 72 h.

SMILES: CC(=O)O[C@H]1C[C@@]2(C)[C@@H](C[C@@H](O)[C@H]3[C@@]4(C)CC[C@@H](O)[C@@H](C)[C@@H]4CC[C@@]32C)/C1=C(\CCC=C(C)C)C(=O)O [FA, Fusidic acid]
- activity (MIC) against a panel of 75 clinical isolates of P. aeruginosa [1]: essentially no antibacterial activity
- MIC ([1]; AR Bank Isolate # 0054): > 1020 µg/mL
- MIC ([1]; AR Bank Isolate # 0064): > 1020 µg/mL
- MIC ([1]; AR Bank Isolate # 0090): > 1020 µg/mL
- MIC ([1]; AR Bank Isolate # 0092): > 1020 µg/mL
- MIC ([1]; AR Bank Isolate # 0095): > 1020 µg/mL
- MIC ([1]; AR Bank Isolate # 0100): > 1020 µg/mL
- MIC ([1]; AR Bank Isolate # 0103): > 1020 µg/mL
- MIC ([1]; AR Bank Isolate # 0110): > 1020 µg/mL
- MIC ([1]; AR Bank Isolate # 0229): > 1020 µg/mL
- MIC ([1]; AR Bank Isolate # 0230): > 1020 µg/mL
- MIC ([1]; AR Bank Isolate # 0231): > 1020 µg/mL
- MIC ([1]; AR Bank Isolate # 0232): > 1020 µg/mL
- MIC ([1]; AR Bank Isolate # 0233): > 1020 µg/mL
- MIC ([1]; AR Bank Isolate # 0234): 1020 µg/mL (≈ 1980 µM)
- MIC ([1]; AR Bank Isolate # 0235): > 1020 µg/mL
- MIC ([1]; AR Bank Isolate # 0236): > 1020 µg/mL
- MIC ([1]; AR Bank Isolate # 0237): > 1020 µg/mL
- MIC ([1]; AR Bank Isolate # 0239): > 1020 µg/mL
- MIC ([1]; AR Bank Isolate # 0240): > 1020 µg/mL
- MIC ([1]; AR Bank Isolate # 0241): > 1020 µg/mL
- MIC ([1]; AR Bank Isolate # 0242): > 1020 µg/mL
- MIC ([1]; AR Bank Isolate # 0243): > 1020 µg/mL
- MIC ([1]; AR Bank Isolate # 0244): > 1020 µg/mL
- MIC ([1]; AR Bank Isolate # 0245): > 1020 µg/mL
- MIC ([1]; AR Bank Isolate # 0246): 1020 µg/mL (≈ 1980 µM)
- MIC ([1]; AR Bank Isolate # 0248): > 1020 µg/mL
- MIC ([1]; AR Bank Isolate # 0250): > 1020 µg/mL
- MIC ([1]; AR Bank Isolate # 0252): > 1020 µg/mL
- MIC ([1]; AR Bank Isolate # 0254): > 1020 µg/mL
- MIC ([1]; AR Bank Isolate # 0265): > 1020 µg/mL
- MIC ([1]; AR Bank Isolate # 0763): > 1020 µg/mL
- MIC ([1]; AR Bank Isolate # 0767): > 1020 µg/mL
- MIC ([1]; AR Bank Isolate # 0769): > 1020 µg/mL
- MIC ([1]; AR Bank Isolate # 0772): > 1020 µg/mL
- MIC ([1]; Carle Isolate ID # Cl-02): 1020 µg/mL (≈ 1980 µM)
- MIC ([1]; Carle Isolate ID # Cl-03): 1020 µg/mL (≈ 1980 µM)
- MIC ([1]; Carle Isolate ID # Cl-04): > 1020 µg/mL
- MIC ([1]; Carle Isolate ID # Cl-05): > 1020 µg/mL
- MIC ([1]; Carle Isolate ID # Cl-06): > 1020 µg/mL
- MIC ([1]; Carle Isolate ID # Cl-07): > 1020 µg/mL
- MIC ([1]; Carle Isolate ID # Cl-08): > 1020 µg/mL
- MIC ([1]; Carle Isolate ID # Cl-09): > 1020 µg/mL
- MIC ([1]; Carle Isolate ID # Cl-10): > 1020 µg/mL
- MIC ([1]; Carle Isolate ID # Cl-11): > 1020 µg/mL
- MIC ([1]; Carle Isolate ID # Cl-12): > 1020 µg/mL
- MIC ([1]; Carle Isolate ID # Cl-13): > 1020 µg/mL
- MIC ([1]; Carle Isolate ID # Cl-14): > 1020 µg/mL
- MIC ([1]; Carle Isolate ID # Cl-15): > 1020 µg/mL
- MIC ([1]; Carle Isolate ID # Cl-19): > 1020 µg/mL
- MIC ([1]; Cubist Strain ID # 996): > 1020 µg/mL
- MIC ([1]; Cubist Strain ID # 997): > 1020 µg/mL
- MIC ([1]; Cubist Strain ID # 998): 1020 µg/mL (≈ 1980 µM)
- MIC ([1]; Cubist Strain ID # 999): > 1020 µg/mL
- MIC ([1]; Cubist Strain ID # 1000): > 1020 µg/mL
- MIC ([1]; Cubist Strain ID # 1001): > 1020 µg/mL
- MIC ([1]; Cubist Strain ID # 1174): > 1020 µg/mL
- MIC ([1]; Cubist Strain ID # 1175): > 1020 µg/mL
- MIC ([1]; Cubist Strain ID # 1176): > 1020 µg/mL
- MIC ([1]; Cubist Strain ID # 1280): > 1020 µg/mL
- MIC ([1]; Cubist Strain ID # 1282): > 1020 µg/mL
- MIC ([1]; Cubist Strain ID # 1283): > 1020 µg/mL
- MIC ([1]; Cubist Strain ID # 1284): > 1020 µg/mL
- MIC ([1]; Cubist Strain ID # 1586): > 1020 µg/mL
- MIC ([1]; Cubist Strain ID # 1590): > 1020 µg/mL
- MIC ([1]; Cubist Strain ID # 1591): > 1020 µg/mL
- MIC ([1]; Cubist Strain ID # 1592): > 1020 µg/mL
- MIC ([1]; Cubist Strain ID # 1905): > 1020 µg/mL
- MIC ([1]; Cubist Strain ID # 1906): > 1020 µg/mL
- MIC ([1]; Cubist Strain ID # 2242): > 1020 µg/mL
- MIC ([1]; Cubist Strain ID # 2243): > 1020 µg/mL
- MIC ([1]; Cubist Strain ID # 2244): > 1020 µg/mL
- MIC ([1]; Other strains (ref.) 1113): > 1020 µg/mL
- MIC ([1]; Other strains (ref.) 1727): > 1020 µg/mL
- MIC fold change in FA-resistant strains [2]: 32-128 ×

Source: patent US20260240869A1, “ANTIPSEUDOMONAL FUSIDIC ACID COMPOUNDS” (priority 2022, published 2026)
